Patent US11639343B2, “Compounds targeting and degrading BCR-ABL protein and its antitumor application” (ShanghaiTech University, priority 2019, dated 2023)

Legend:
[1] = test system: HEK293 (BCR-ABL-) cells; test: CCK-8 proliferation inhibition, HEK293 cells; details: Homo sapiens, HEK293, 48 h, read-out: Proliferative inhibitory activity (IC50, nM) HEK293 (BCR-ABL-);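 further: Ten-point threefold dilution series starting at 10 µM, CCK-8 absorbance at 450 nm read after 2 h reagent incubation, DMSO-treated cells as negative control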
[2] = test system: K562 cell transplantation tumor; test: BCR-ABL+ K562 cell transplanted tumor model in mice; assay type: in vivo
From the text: (1) Establishment of K562 Luc cells: the target fragment of luciferase was cloned into lentivirus vector Plenti-IRES-ZSGREEN, and a K562-Luc cell line stably expressing luciferase was established on K562 cells by using lentivirus infection system.
(§1) (2) BCR-ABL+K562 cell transplanted mouse model: 5*106 k562 Luc cells were inoculated into the subcutaneous of immunodeficient NOD-SCID mice. After 2 weeks, the tumor volume of mice was nearly 200 mm^3. The mice were randomly divided into 5 groups. […] At the same time, the mice were imaged in vivo to observe the tumor-bearing condition. Then stop the administration and observe the recurrence of the tumor.

[3] = Body weight and toxicity in the K562 transplanted mouse model; assay type: in vivo; details: NOD-SCID mice, during the experiment period
From the text: as §1

[4] = target: T1, c-ABL protein (Homo sapiens, UniProt P00519); test: Western blot degradation of c-ABL in K562 cells; assay type: cell-based; set-up: Western blot was used to detect the expression of BCR-ABL and c-ABL protein in K562 cells; endogenous in cells; host or cells: K562; details: 16 hours, 1 nM-10 μM
T1 sequence (P00519 whole entry): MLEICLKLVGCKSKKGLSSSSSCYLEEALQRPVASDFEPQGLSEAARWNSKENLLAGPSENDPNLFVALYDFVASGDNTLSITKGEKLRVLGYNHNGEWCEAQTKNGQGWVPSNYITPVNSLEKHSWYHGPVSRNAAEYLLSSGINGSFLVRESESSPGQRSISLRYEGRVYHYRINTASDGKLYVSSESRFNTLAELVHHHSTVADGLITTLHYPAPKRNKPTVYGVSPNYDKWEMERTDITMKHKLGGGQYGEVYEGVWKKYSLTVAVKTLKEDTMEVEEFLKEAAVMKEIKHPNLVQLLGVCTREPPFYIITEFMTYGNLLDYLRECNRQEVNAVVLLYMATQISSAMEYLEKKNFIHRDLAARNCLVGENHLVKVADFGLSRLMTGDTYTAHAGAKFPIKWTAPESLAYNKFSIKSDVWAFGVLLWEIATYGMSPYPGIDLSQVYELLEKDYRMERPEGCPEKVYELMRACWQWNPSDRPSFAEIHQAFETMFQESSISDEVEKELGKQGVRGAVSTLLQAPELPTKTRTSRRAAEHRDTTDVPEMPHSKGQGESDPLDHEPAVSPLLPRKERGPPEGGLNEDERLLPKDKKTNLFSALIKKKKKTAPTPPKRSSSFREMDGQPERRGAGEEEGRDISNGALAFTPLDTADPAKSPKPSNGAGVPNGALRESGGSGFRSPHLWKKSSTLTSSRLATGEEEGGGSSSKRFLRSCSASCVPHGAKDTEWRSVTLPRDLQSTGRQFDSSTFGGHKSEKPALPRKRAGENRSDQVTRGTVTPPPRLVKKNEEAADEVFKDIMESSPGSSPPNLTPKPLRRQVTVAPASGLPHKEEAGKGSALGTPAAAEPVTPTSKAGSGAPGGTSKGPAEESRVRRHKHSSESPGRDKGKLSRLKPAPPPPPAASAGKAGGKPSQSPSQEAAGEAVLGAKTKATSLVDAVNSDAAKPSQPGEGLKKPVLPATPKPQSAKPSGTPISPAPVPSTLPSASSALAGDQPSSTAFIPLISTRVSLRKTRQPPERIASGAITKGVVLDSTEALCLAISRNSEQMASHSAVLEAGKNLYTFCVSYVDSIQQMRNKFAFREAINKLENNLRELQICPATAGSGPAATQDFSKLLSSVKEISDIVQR
How it was run: (§2)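 Lysates were normalized by Bradford and run on SDS-PAGE with nitrocellulose transfer. DC50 was derived from band intensities by non-linear regression.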

[5] = test system: BCR-ABL signal pathway; test: BCR-ABL signal pathway activity in vivo
From the text: (§3) We further study whether PROTAD compound of the disclosure can induce BCR-ABL protein degradation in vivo. We still took the compound SIAIS151178 of Dasa-Lin-VHL system as the representative one.

[6] = test system: Src protein kinase, kit, PDGFR; test: Degradation of other tyrosine kinase receptors
[7] = target: T1, c-ABL protein; test: Degradation of c-ABL protein in vivo; set-up: from tissue; host or cells: in vivo
From the text: as §3

[8] = test system: BCR-ABL-G250E/V299L/F317L/F317V; test: Western blot degradation of BCR-ABL drug resistance mutants in U937 cells; assay type: cell-based, human; details: U937 cells stably expressing mutants, 24 hours, 10 nM-10 μM
Description: (1) Establishment of stable BCR-ABL mutant: the target fragment of BCR-ABL was cloned into retroviral vector pmigrl, and then PMIGR1-BCR-ABL-G250E/E255K/V299L/F317L/F317V/T315I/T315A and other mutant forms were obtained by using Stratagene-QuikChange® Site-Directed Mutagenesis Kit. Finally, the cell lines stably expressing BCR-ABL wild type and mutant were established on U937 cells by retrovirus infection system.
(1) Cell seed: Established cells are added to the 24 well plates, with a cell density of 3×10^5/ml and a total volume of 1.5 ml; Four concentration gradients, 10 nm, 100 nm, 1 μM, and 10 μM, are respectively set for PROTAD series compounds. […] After 24 hours of drug treatment, the cells were collected in 1.5 ml ep tube, centrifuged at 3000 rpm for 3 minutes, and then added 30 μL PBS and 30 μL 2×SDS to cell precipitated, lysate Heat at 100° C. for 5 minutes, then placed on ice for 5 minutes, centrifuged at 10000 rpm for 5 minutes, and take the supernatant as the total protein extracted. The effect of SIAS151178 on the mutational BCR-ABL protein was detected by Western blotting.

[9] = target: T2, BCR-ABL protein (Homo sapiens, UniProt P00519); test: Western blot degradation of BCR-ABL in K562 cells; assay type: cell-based; set-up: Western blot was used to detect the expression of BCR-ABL and c-ABL protein in K562 cells; BCR (fusion partner, P11274); endogenous in cells; host or cells: K562; the other entry of the earlier key: BCR (P11274, Breakpoint cluster region protein); details: 16 hours, 1 nM-10 μM
T2 sequence (P00519 with tags, fused parts or gaps): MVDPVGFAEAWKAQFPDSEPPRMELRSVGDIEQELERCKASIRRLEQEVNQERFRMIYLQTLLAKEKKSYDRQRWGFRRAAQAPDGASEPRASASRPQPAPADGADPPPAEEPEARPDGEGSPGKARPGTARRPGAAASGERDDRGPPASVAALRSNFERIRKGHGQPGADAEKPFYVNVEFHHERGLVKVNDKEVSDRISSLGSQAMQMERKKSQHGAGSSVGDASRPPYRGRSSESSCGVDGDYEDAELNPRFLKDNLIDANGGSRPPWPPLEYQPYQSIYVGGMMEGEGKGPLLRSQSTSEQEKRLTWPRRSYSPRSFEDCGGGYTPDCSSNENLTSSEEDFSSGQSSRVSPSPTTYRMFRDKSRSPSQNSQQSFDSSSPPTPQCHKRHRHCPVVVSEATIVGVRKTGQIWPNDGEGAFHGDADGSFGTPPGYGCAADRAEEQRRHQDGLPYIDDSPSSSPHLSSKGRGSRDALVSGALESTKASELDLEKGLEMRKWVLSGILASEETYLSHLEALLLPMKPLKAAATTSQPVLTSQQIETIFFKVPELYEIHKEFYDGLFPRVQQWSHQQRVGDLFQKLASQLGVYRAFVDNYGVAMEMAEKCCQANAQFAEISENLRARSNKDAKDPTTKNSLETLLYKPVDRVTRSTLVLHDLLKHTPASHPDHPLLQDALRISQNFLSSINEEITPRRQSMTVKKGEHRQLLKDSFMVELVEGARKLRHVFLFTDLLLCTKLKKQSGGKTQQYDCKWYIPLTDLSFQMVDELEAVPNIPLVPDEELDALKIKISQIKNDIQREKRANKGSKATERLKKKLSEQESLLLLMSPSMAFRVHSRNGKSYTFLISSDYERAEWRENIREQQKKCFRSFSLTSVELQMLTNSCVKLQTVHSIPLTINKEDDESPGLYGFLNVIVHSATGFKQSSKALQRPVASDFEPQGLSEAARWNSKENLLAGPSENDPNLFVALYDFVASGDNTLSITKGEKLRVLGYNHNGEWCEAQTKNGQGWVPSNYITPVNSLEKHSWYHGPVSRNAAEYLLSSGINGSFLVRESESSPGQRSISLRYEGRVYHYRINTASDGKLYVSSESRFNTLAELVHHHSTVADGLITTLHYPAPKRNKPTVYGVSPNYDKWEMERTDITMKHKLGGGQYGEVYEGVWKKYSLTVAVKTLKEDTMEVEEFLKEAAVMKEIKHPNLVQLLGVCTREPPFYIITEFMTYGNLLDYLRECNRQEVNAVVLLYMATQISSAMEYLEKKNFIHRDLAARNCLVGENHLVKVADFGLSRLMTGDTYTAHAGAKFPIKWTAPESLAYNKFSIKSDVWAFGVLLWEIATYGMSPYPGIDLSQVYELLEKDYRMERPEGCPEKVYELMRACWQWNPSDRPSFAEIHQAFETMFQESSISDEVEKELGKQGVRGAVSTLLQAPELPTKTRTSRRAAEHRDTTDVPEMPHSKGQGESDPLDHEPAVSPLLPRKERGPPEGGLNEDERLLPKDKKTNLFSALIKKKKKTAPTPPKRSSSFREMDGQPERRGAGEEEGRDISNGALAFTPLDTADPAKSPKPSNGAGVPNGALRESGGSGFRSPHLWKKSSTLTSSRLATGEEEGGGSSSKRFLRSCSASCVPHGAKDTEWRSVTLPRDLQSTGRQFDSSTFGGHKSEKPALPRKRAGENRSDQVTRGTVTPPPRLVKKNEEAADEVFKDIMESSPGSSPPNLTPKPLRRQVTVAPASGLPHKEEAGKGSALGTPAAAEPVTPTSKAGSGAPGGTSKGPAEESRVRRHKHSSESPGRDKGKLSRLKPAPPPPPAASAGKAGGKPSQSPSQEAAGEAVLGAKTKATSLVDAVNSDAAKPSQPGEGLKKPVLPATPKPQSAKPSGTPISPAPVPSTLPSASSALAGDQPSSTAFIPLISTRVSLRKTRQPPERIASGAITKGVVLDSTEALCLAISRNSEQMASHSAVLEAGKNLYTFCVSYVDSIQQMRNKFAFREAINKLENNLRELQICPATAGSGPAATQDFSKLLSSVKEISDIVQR
How it was run: as §2

[10] = test system: U937 (BCR-ABL-) cells; test: CCK-8 proliferation inhibition, U937 cells; assay type: cell-based, human; details: Homo sapiens, U-937; CCK-8, 48 hours of drug treatment, highest concentration 10 μM; read-out: Proliferative inhibitory activity (IC50, nM) U937 (BCR-ABL-);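 further: Ten-point threefold dilution series, absorbance at 450 nm after 2 h with CCK-8 reagent, DMSO as negative control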
[11] = target: T2, BCR-ABL protein; test: Degradation of BCR-ABL protein in vivo; set-up: BCR (fusion partner, P11274); from tissue; host or cells: in vivo; the other entry of the earlier key: BCR (P11274, Breakpoint cluster region protein)
From the text: as §3

[12] = test system: K562 (BCR-ABL+) cells; test: CCK-8 proliferation inhibition, K562 cells; assay type: cell-based, human; details: Homo sapiens, K562, 48 h, CCK-8, 48 hours of drug treatment; read-out: Proliferative inhibitory activity (IC50, nM) K562 (BCR-ABL+);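 further: Ten-point threefold dilution series starting at 10 µM, absorbance at 450 nm after 2 h with CCK-8, DMSO as negative control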

Structure (SMILES)	IC50 [1] [nM]	tumor decrease ([2]; NOD-SCID mice, 15 mg/kg)	growth of K562 cell transplantation tumor ([2]; NOD-SCID mice, 5, 15, 45 mg/kg, 2 weeks)	bodyweight of mice [3]	toxic and side effects [3]	DC50 [4] [nM]	BCR-ABL signal pathway activity in vivo [5]	degradation of other tyrosine kinase receptors [6]	degradation of c-ABL protein in vivo [7]	degradation of BCR-ABL mutants related to clinical drug resistance [8]	DC50 [9] [nM]	IC50 [10] [nM]	degradation of BCR-ABL protein in vivo [11]	IC50 [12] [nM]
Cc1nc(Nc2ncc(C(=O)Nc3c(C)cccc3Cl)s2)cc(N2CCN(C(=O)CCCCCCC(=O)N[C@H](C(=O)N3C[C@H](O)C[C@H]3C(=O)NCc3ccc(-c4scnc4C)cc3)C(C)(C)C)CC2)n1 [SIAIS151178, N-(2-chloro-6-methylphenyl)-2-((6-(4-(8-(((S)-1-((2S,4R)-4-hydroxy-2-((4-(4-methylthiazol-5-yl)benzyl)carbamoyl)pyrrolidin-1-yl)-3,3-dimethyl-1-oxobutan-2-yl)amino)-8-oxooctanoyl)piperazin-1-yl)-2-methylpyrimidin-4-yl)amino)thiazole-5-carboxamide]	> 10000	can cause tumor decrease	can inhibit the growth of K562 cell transplantation tumor in a dose-dependent manner	no significant effect on the bodyweight of mice	no obvious toxic and side effects were found	10 to 100	significantly inhibit the BCR-ABL signal pathway activity	can also degrade other tyrosine kinase receptors, such as Src protein kinase, kit, PDGFR	can also degrade BCR-ABL and c-ABL protein in a dose-dependent manner in vivo	can significantly degrade the mutant forms of BCR-ABL-G250E/V299L/F317L/F317V in a dose-dependent manner	1 to 10	> 10000	can also degrade BCR-ABL and c-ABL protein in a dose-dependent manner in vivo	41.3
Cc1nc(Nc2ncc(C(=O)Nc3c(C)cccc3Cl)s2)cc(N2CCN(C(=O)CCCC(=O)Nc3cccc4c3C(=O)N(C3CCC(=O)NC3=O)C4=O)CC2)n1 (stereo not drawn) [SIAIS184053, N-(2-chloro-6-methylphenyl)-2-((6-(4-(5-((2-(2,6-dioxopiperidin-3-yl)-1,3-dioxoisoindolin-4-yl)amino)-5-oxopentanoyl)piperazin-1-yl)-2-methylpyrimidin-4-yl)amino)thiazole-5-carboxamide]	> 10000	–	–	–	–	10 to 100	–	–	–	–	10 to 100	> 10000	–	16.5
Cc1nc(Nc2ncc(C(=O)Nc3c(C)cccc3Cl)s2)cc(N2CCN(C(=O)COc3cccc4c3C(=O)N(C3CCC(=O)NC3=O)C4=O)CC2)n1 (stereo not drawn) [SIAIS184128, N-(2-chloro-6-methylphenyl)-2-((6-(4-(2-((2-(2,6-dioxopiperidin-3-yl)-1,3-dioxoisoindolin-4-yl)oxy)acetyl)piperazin-1-yl)-2-methylpyrimidin-4-yl)amino)thiazole-5-carboxamide]	> 10000	–	–	–	–	1 to 10	–	–	–	–	1 to 10	> 10000	–	7
